Biological target: T1, CYP1A2 in pooled HLMs (Homo sapiens, UniProt P05177)
T1 construct: the native CYPs present in HLM; tissue Corning (Amsterdam, The Netherlands); host or cells: pooled human liver microsomes, 150 donors, mixed gender
T1 sequence (P05177 1-516): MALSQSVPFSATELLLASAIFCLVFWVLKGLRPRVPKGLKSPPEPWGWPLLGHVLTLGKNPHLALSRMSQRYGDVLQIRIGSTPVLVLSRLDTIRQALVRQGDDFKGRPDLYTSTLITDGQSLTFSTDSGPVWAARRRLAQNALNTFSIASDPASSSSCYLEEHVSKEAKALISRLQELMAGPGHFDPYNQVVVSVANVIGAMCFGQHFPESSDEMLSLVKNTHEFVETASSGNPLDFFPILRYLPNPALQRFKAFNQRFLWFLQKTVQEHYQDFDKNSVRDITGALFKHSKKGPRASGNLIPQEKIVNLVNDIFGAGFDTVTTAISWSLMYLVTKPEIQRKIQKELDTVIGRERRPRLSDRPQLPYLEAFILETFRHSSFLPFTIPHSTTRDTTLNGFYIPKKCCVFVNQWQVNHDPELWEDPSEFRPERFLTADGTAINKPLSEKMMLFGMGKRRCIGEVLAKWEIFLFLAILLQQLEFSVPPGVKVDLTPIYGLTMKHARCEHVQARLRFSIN
Experiment: Pooled HLM incubation with CYP1A2 probe substrate (ISEF determination)
Type: in vitro ADME
Settings: acetaminophen formation
Procedure: To normalize for differences in intrinsic CYP activity between Supersome™ and pooled HLMs and enable scaling of the activities to the in vivo situation, CYP-specific ISEF values need to be established. […] The incubation method was similar as used for the CPF kinetic incubation assay described above, except that certain incubation conditions were replaced by the conditions listed in Table 1. The samples obtained were analyzed by UPLC-PDA for acetaminophen, 4-hydroxymephenytoin, and 6β-hydroxytestosterone formation catalyzed by 1A2, 2C19 and 3A4, or LC–MS/MS for (±)-hydroxybupropion formation catalyzed by 2B6.
As mentioned before, the in vitro apparent kinetic parameters (Vmax and Km) for pathway 1 and pathway 2 in the HLM-based approach, and pathway 3 in both approaches were all obtained directly from reported studies using pooled HLMs (Buratti et al. [2003]; Sams et al. [2004]; Zhao et al. [2019]). Therefore, no extra calculations were required to define these parameters. […] It should be noted that the kinetic parameters for pathway 4 used in the two approaches were calculated as mean of the kinetic parameters (Vmax and Km) obtained using 25 individual HP samples (with correction for total protein concentration of each plasma sample).

In the case of `CCOc1ccc(NC(C)=O)cc1` [Phenacetin, phenacetin], the “Vmax (pooled HLMs)” value is reported as 0.15 nmol/min/mg microsomal protein.

— PMC9013686, “Inter-individual variation in chlorpyrifos toxicokinetics characterized by physiologically based kinetic (PBK) and Monte Carlo simulation comparing human liver microsome and Supersome™ cytochromes P450 (CYP)-specific kinetic data as model input” (Archives of Toxicology, 2022)
